# Measured values as given in ChEMBL document CHEMBL1156550, “Synthesis and pharmacological evaluation of pentacyclic 6a,7-dihydrodiindole and 2,3-dihydrodiindole derivatives as novel melatoninergic ligands” (Bioorg Med Chem, 2008).
# Tests used:
# [1] = molecular target: Melatonin receptor type 1A (Homo sapiens, UniProt P48039); assay: Displacement of 2-[125I]iodomelatonin from human melatonin MT1 receptor expressed in CHO cells; format: cell-based
# [2] = molecular target: T1, Melatonin receptor type 1B (Homo sapiens, UniProt P49286); assay: Displacement of 2-[125I]iodomelatonin from human melatonin MT2 receptor expressed in CHO cells; format: cell-based
# T1 sequence (P49286 whole entry): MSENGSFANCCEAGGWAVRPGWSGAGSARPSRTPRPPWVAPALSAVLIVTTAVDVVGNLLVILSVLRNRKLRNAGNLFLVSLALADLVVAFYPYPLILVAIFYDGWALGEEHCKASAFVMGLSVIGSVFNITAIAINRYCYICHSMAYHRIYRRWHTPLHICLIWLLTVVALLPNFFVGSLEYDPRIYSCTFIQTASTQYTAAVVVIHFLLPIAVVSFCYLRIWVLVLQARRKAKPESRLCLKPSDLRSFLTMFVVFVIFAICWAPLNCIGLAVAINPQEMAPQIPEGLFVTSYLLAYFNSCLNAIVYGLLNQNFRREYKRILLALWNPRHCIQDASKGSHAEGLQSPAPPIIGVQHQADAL
# Homo sapiens = organism: Homo sapiens; assay: Selectivity ratio of Ki for human melatonin MT1 receptor to Ki for human melatonin MT2 receptor
# Melatonin receptor type 1A, sequence (P48039 whole entry): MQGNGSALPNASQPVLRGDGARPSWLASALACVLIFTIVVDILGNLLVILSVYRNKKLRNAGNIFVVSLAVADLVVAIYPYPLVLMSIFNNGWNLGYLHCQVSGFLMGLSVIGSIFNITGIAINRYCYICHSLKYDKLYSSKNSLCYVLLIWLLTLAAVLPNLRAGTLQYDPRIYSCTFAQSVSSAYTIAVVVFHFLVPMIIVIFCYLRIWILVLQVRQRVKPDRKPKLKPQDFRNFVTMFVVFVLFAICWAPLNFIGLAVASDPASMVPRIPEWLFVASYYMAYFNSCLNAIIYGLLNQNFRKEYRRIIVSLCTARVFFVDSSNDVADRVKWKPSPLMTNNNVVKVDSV
Compound,Ki [1] [nM],Ki [2] [nM],Ratio Ki (Homo sapiens)
CC(=O)NCCc1c2n(c3ccccc13)CC1Cc3ccccc3N1C2 (stereo unspecified),1000,1700,–
COc1ccc2c(c1)CC(CO)N2Cc1[nH]c2ccc(OC)cc2c1CCNC(C)=O (racemic),34.5,33.6,1.03
COc1ccc2c(c1)CC1Cn3c(c(CCNC(C)=O)c4cc(OC)ccc43)CN21 (stereo unspecified),1800,410,–
COc1ccc2[nH]c(CN3c4ccccc4CC3CO)c(CCNC(C)=O)c2c1 (racemic),17.5,36.2,0.48
COc1ccc2c(c1)c(CCNC(C)=O)c1n2CC2Cc3ccccc3N2C1 (stereo unspecified),319,65.2,4.89
COc1ccc2[nH]c(CN3c4ccccc4C[C@H]3CO)c(CCNC(C)=O)c2c1,9.8,7.8,1.25
